Reference: ChEMBL document CHEMBL1126470, “Toward developing peptidomimetics: Successful replacement of backbone amide bonds in tetrapeptide-based CCK-A receptor agonists” (Bioorg Med Chem Lett, 1993)

What was measured:
[1] = target: T1, Cholecystokinin receptor type A (Cavia porcellus, UniProt Q63931); experiment: Displacement of [125I]Bolton-Hunter-CCK-8 from guinea pig pancreas Cholecystokinin type A receptor
T1 sequence (Q63931 whole entry): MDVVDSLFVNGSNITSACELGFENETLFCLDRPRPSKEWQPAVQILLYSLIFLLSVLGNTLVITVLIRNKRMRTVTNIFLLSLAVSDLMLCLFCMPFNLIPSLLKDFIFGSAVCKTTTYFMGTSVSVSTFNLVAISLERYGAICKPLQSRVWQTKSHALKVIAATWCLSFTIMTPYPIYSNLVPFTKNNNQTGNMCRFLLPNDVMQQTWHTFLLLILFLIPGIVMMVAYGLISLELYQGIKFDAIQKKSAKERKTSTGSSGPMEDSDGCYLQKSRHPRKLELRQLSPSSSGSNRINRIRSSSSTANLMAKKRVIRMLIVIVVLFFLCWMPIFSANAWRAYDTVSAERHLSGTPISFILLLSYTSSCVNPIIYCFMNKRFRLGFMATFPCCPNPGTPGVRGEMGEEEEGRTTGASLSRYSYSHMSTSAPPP

Cavia porcellus = organism: Cavia porcellus; experiment: Compound was evaluated for its ability to stimulate PI hydrolysis in guinea pig pancreas relative to maximal response elicited by CCK-8; type: functional

IC50 [1] [nM] | SMILES | Max response (Cavia porcellus) [%]
300 | Cc1ccccc1NC(=O)NCCCC[C@H](NC(=O)[C@H](Cc1c[nH]c2ccccc12)NC(=O)OC(C)(C)C)C(=O)N[C@H](CNN[C@@H](Cc1ccccc1)C(N)=O)CC(=O)O | 6.3
130 | CC(C)(C)OC(=O)N[C@@H](Cc1c[nH]c2ccccc12)C(=O)N[C@@H](CCCCNC(=O)/C=C\c1ccc(O)cc1)C(=O)N[C@H](CNN[C@@H](Cc1ccccc1)C(N)=O)CC(=O)O | 0
250 | CN(C(=O)[C@H](CC(=O)O)NNC[C@H](CCCCNC(=O)/C=C\c1ccc(O)cc1)NC(=O)[C@H](Cc1c[nH]c2ccccc12)NC(=O)OC(C)(C)C)[C@@H](Cc1ccccc1)C(N)=O | 28
40 | CC(C)(C)OC(=O)N[C@@H](Cc1c[nH]c2ccccc12)C(=O)N[C@@H](CCCCNC(=O)/C=C\c1ccc(O)cc1)CNN[C@@H](CC(=O)O)C(=O)N[C@@H](Cc1ccccc1)C(N)=O | 44
1600 | Cc1ccccc1NC(=O)NCCCC[C@@H](CNN[C@@H](CC(=O)O)C(=O)N(C)[C@@H](Cc1ccccc1)C(N)=O)NC(=O)[C@H](Cc1c[nH]c2ccccc12)NC(=O)OC(C)(C)C | 0
930 | CC(C)(C)OC(=O)N[C@H](CNN[C@@H](CCCCNC(=O)/C=C/c1ccc(O)cc1)C(=O)N[C@@H](CC(=O)O)C(=O)N[C@@H](Cc1ccccc1)C(N)=O)Cc1c[nH]c2ccccc12 | 5.6
470 | Cc1ccccc1NC(=O)NCCCC[C@H](NNC[C@H](Cc1c[nH]c2ccccc12)NC(=O)OC(C)(C)C)C(=O)N[C@@H](CC(=O)O)C(=O)N[C@@H](Cc1ccccc1)C(N)=O | 8.9
– | CSCC[C@H](NC(=O)[C@H](Cc1c[nH]c2ccccc12)NC(=O)OC(C)(C)C)C(=O)N[C@@H](CC(=O)O)C(=O)N[C@@H](Cc1ccccc1)C(N)=O | 100
– | CSCC[C@H](NC(=O)[C@H](Cc1ccc(OS(=O)(=O)O)cc1)NC(=O)[C@@H](N)CC(=O)O)C(=O)NCC(=O)N[C@@H](Cc1c[nH]c2ccccc12)C(=O)N[C@@H](CCSC)C(=O)N[C@@H](CC(=O)O)C(=O)N[C@@H](Cc1ccccc1)C(N)=O [SINCALIDE] | 100
